Experimental data published in patent US20260014146A1, “CDK2 INHIBITORS AND METHODS OF USING THE SAME” (Cedilla Therapeutics, Inc., priority 2022, published 2026).
pIC50: −log10 of the molar value.

Key:
[1] = tested on: Kuramochi cells labeled with mApple-H2B; assay: IncuCyte cell proliferation assay; type: cell-based; conditions: Kuramochi RB-WT, cell count 0 to 72 hours; method calls it GI50
Method in brief: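 mApple-H2B-labelled Kuramochi cells were treated with compound (10-point, half-log dilutions, 20 μM top) and fluorescent nuclei counted by imaging at 0 and 72 h. Fold change in count was normalized to DMSO wells and fitted to dose-response curves to give GI50.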

[2] = target: CDK2/Cyclin E1 (Homo sapiens (Human), UniProt P24941); assay: ADP-Glo Luminescent Kinase Assay, ADPGLO (CDK2/E1-37C); type: biochemical; conditions: 0.18 nM CDK2/Cyclin E1, 100 μM ATP, 1.5 μM Histone H1, 37° C.; read-out: Pharmaron ADPGLO (CDK2/E1-37C): IC50
Description: Inhibition of CDK2/Cyclin E1 activity by the presence of small molecules was evaluated using ADP-Glo Luminescent Kinase Assay (Promega). Activated CDK2/Cyclin E1 was incubated with its substrate Histone H1 (SignalChem H10-54N) in the kinase reaction buffer (100 μM ATP, 50 mM HEPES pH 7.5, 10 mM MgCl2, 1 mM EDTA, 2 mM DTT, 0.01% Brij35, 0.5 mg/mL BSA). Luminescence was recorded with an Envision plate reader (PerkinElmer).
Dose titrations of inhibitors in 100% DMSO were combined with 0.36 nM CDK2/Cyclin E1 in reaction buffer. The mixtures were incubated for 60 minutes at 37° C. before the addition of ATP and Histone H1 substrate to initiate the kinase reaction. The final conditions were 0.18 nM CDK2/Cyclin E1, 100 μM ATP, and 1.5 μM Histone H1. The reactions were incubated at 37° C. for 90 minutes before being stopped with the addition of ADP-Glo reagent. This mixture was incubated at room temperature for 60 minutes before Kinase Detection Solution is added to generate luminescence. The stopped reactions were analyzed on an Envision plate reader. The conversion ratios were normalized to yield % activity, plotted against compound concentration, and fit to a four-parameter equation to determine the IC50 for each compound.

SMILES | pIC50 [1] | pIC50 [2]
C[C@@H](OCC12CCC(CC1)OC2)[C@@H](COC1CCC(c2ccccc2C(=O)O)CC1)NC(=O)[C@@H]1CN(c2cc(F)cc3ncsc23)CC12CN(C(=O)C1(C(F)(F)F)CC1)C2 (stereo partly drawn) [Compound I-53, 2-(4-((2R,3R)-3-(2-oxabicyclo[2.2.2]octan-4-ylmethoxy)-2-((S)-6-(5-fluorobenzo[d]thiazol-7-yl)-2-(1-(trifluoromethyl)cyclopropanecarbonyl)-2,6-diazaspiro[3.4]octane-8-carboxamido)butoxy)cyclohexyl)benzoic acid] | < 4.70 | < 5.00
C[C@@H](OCC12CCC(CC1)OC2)[C@H](NC(=O)[C@@H]1CN(c2cc(F)cc3ncsc23)CC12CN(C(=O)C1(C(F)(F)F)CC1)C2)C(=O)N1CCC(c2nccs2)CC1 [Compound I-48, (S)-N-((2S,3R)-3-((2-oxabicyclo[2.2.2]octan-4-yl)methoxy)-1-oxo-1-(4-(thiazol-2-yl)piperidin-1-yl)butan-2-yl)-6-(5-fluorobenzo[d]thiazol-7-yl)-2-(1-(trifluoromethyl)cyclopropane-1-carbonyl)-2,6-diazaspiro[3.4]octane-8-carboxamide] | 5.30 to 6.30 | 5.30 to 6.30
C[C@@H](OCC12CCC(CC1)OC2)[C@@H](COC1CCC(c2ccc(C(=O)O)cc2)CC1)NC(=O)[C@@H]1CN(c2cc(F)cc3ncsc23)CC12CN(C(=O)C1(C(F)(F)F)CC1)C2 (stereo partly drawn) [Compound I-47, 4-(4-((2R,3R)-3-((2-oxabicyclo[2.2.2]octan-4-yl)methoxy)-2-((S)-6-(5-fluorobenzo[d]thiazol-7-yl)-2-(1-(trifluoromethyl)cyclopropane-1-carbonyl)-2,6-diazaspiro[3.4]octane-8-carboxamido)butoxy)cyclohexyl)benzoic acid] | 4.70 to 5.30 | < 5.00
